Earlier results as cited in patent publication US20230320397A1, “EXTRACTS FOR HEALTH SUPPLEMENTS” (EXTENDED LONGEVITY, priority 2022, published 2023).

Conditions: by the use of heat

**Q.** Which increased solubility does the source give for `COc1cc(/C=C/C(=O)CC(=O)/C=C/c2ccc(O)c(OC)c2)ccc1O` [curcumin] here?
**A.** The increased solubility was 12 fold.
